The compounds below were run against T1, human GPR39 receptor (Homo sapiens, UniProt O43194) (assay: Intracellular calcium response (FLIPR, Calcium-6) in PC3 cells, antagonism of agonist C3 (TC-G 1008) at EC90). Conditions: functional pKi (-Log10Ki) by modified Cheng-Prusoff from IC50; PC3 cells endogenously expressing human GPR39; 30 μM ZnCl2; agonist C3 (TC-G 1008) at EC90 1.5 μM; read-out: fpKi activity.
T1 construct: PC3 Cells, Expressing the Endogenous Human GPR39 Receptor; endogenous in cells; host or cells: PC3 (human prostate adenocarcinoma) cells
T1 sequence (O43194 1-453): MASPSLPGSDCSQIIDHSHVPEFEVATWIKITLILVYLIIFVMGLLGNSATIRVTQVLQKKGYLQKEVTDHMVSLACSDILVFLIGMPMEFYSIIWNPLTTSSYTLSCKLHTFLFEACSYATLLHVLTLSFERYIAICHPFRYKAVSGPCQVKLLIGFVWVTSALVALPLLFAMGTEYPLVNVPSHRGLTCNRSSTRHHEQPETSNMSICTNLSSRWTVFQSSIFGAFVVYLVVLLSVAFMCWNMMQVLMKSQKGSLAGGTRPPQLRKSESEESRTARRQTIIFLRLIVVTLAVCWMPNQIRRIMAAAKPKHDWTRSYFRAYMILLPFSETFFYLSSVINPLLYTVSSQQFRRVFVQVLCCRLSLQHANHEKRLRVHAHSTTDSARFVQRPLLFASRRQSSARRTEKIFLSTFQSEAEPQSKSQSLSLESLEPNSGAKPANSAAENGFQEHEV
Assay type: cell-based
Method in brief: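 Calcium-6-loaded cells in HEPES buffer pH 7.4 were given compound with 30 μM final ZnCl2 (0.32% DMSO) for 10 min, then challenged with 1.5 μM C3. Baseline-subtracted peak fluorescence expressed as % inhibition of the C3 response; IC50 from four-parameter logistic fit, reported as binned fpKi.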

Compound	Ki
O=C(Nc1ccc(C(=O)N2CCS(=O)(=O)CC2)c(N2CCCC2)c1Cl)C1CC1 [Example 98, N-[2-chloro-4-(1,1-dioxo-1,4-thiazinane-4-carbonyl)-3-pyrrolidin-1-ylphenyl]cyclopropanecarboxamide]	0.316 to 1 µM
O=C(Nc1cc(N2CCCC2)c(C(=O)N2CCS(=O)(=O)CC2)cc1Cl)C1CC1 [Example 96, N-[2-chloro-4-(1,1-dioxo-1,4-thiazinane-4-carbonyl)-5-pyrrolidin-1-ylphenyl]cyclopropanecarboxamide]	1.26 to 6.31 µM
CCn1nccc1-c1cc(-c2nnc(C)[nH]2)ccc1C(=O)N1CCC(F)(F)CC1 [Example 44, (4,4-difluoropiperidin-1-yl)-[2-(2-ethylpyrazol-3-yl)-4-(5-methyl-4H-1,2,4-triazol-3-yl)phenyl]methanone]	1.26 to 6.31 µM
COC1(C)CCN(C(=O)c2ccc(-c3nnc(C)[nH]3)cc2-c2nc(C(F)(F)F)cs2)CC1 [Example 67, (4-methoxy-4-methyl-1-piperidyl)-[4-(5-methyl-4H-1,2,4-triazol-3-yl)-2-[4-(trifluoromethyl)thiazol-2-yl]phenyl]methanone]	≤ 0.0501 µM
Cc1nnc(-c2ccc(C(=O)N3CCC(C)CC3)c(-c3ccn(C(C)C)n3)c2)[nH]1 [Example 61, (4-methylpiperidin-1-yl)-[4-(5-methyl-4H-1,2,4-triazol-3-yl)-2-(1-propan-2-ylpyrazol-3-yl)phenyl]methanone]	≤ 0.0501 µM
CN1CCN(C(=O)c2ccc(NC(=O)C3CC3)cc2-c2ccc(C(F)(F)F)s2)C(c2ccccc2)C1 (racemic) [Example 33, N-[4-(4-methyl-2-phenylpiperazine-1-carbonyl)-3-[5-(trifluoromethyl)thiophen-2-yl]phenyl]cyclopropanecarboxamide]	> 6.31 µM
Cc1nnc(-c2ccc(C(=O)N3CCC(F)(F)CC3)c(-c3ccn(C)n3)c2)[nH]1 [Example 46, (4,4-difluoropiperidin-1-yl)-[2-(1-methylpyrazol-3-yl)-4-(5-methyl-4H-1,2,4-triazol-3-yl)phenyl]methanone]	0.0631 to 0.251 µM
Cc1nnc(-c2ccc(C(=O)N3CCN(C)CC3c3ccccc3)c(N3CCC(C(C)C)C3)c2)[nH]1 (single isomer, unassigned) [Example 125a, (4-methyl-2-phenylpiperazin-1-yl)-[4-(5-methyl-4H-1,2,4-triazol-3-yl)-2-(3-propan-2-ylpyrrolidin-1-yl)phenyl]methanone]	0.316 to 1 µM
Cc1ccc(-c2cc(NC(=O)C3CC3)ccc2C(=O)N2CCN(C)CC2c2ccccc2)s1 (racemic) [Example 34, N-[4-(4-methyl-2-phenylpiperazine-1-carbonyl)-3-(5-methylthiophen-2-yl)phenyl]cyclopropanecarboxamide]	0.0631 to 0.251 µM
Cc1nnc(-c2ccc(C(=O)N3CCC(F)(F)CC3)c(-c3cccc(C4CC4)n3)c2)[nH]1 [Example 78, [2-(6-cyclopropyl-2-pyridyl)-4-(5-methyl-4H-1,2,4-triazol-3-yl)phenyl]-(4,4-difluoro-1-piperidyl)methanone]	≤ 0.0501 µM
Cc1ccc(C2CN(C)CCN2C(=O)c2ccc(NC(=O)C3CC3)cc2N2CCCC2)cc1 (racemic) [Example 109, N-[4-[4-methyl-2-(4-methylphenyl)piperazine-1-carbonyl]-3-pyrrolidin-1-ylphenyl]cyclopropanecarboxamide]	0.0631 to 0.251 µM

— patent US20250333405A1, “ANTAGONISTS OF GPR39 PROTEIN” (VASOCARDEA, INC., priority 2024, published 2025)
